Experimental data published in paper PMC4176448 (The Journal of Infectious Diseases, 2014).

Tested on: influenza B virus
Parameters: species or system human (patient)
Conditions: human, in vivo, po

CCOC(=O)C1=C[C@@H](OC(CC)CC)[C@H](NC(C)=O)[C@@H](N)C1 [Oseltamivir, oseltamivir]
NPAs tested for influenza B virus after oseltamivir treatment: still positive
